What all share (assay): inhibition of tumour cell growth, NCI panel, 48 h
In assay [1] the test system is A498 renal.
In assay [2] the test system is ACHN renal.
Assay [3] deals with HT29 colon.
In assay [4] the test system is M14 melanoma.
Assay [5] deals with OVCAR-3 ovarian.
In assay [6] the test system is OVCAR-4 ovarian.
Assay [7] relates to SF-268 CNS.
Assay [8] deals with SK-OV-3 ovarian.
Assay [9] concerns SN12C renal.
The subject of assay [10] is UO-31 renal.

Several values for one entry are separate records, joined by “and”; a condition that tells them apart may be missing. Equal entries are not always repeated.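 The compound was tested at five concentrations on cells cultured in 96-well plates, with a 48-hour exposure period. GI50: concentration for 50% inhibition of growth. At the TGI there is no net growth.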 A value given as a limit tells only on which side of the number the result lay.

Take `COc1cc(/C=C/C(=O)CC(=O)/C=C/c2cc(OC)c(OC)c(OC)c2)cc(OC)c1OC`: the GI50 in [1] is 10.4 µM; in assay [2], 3.95 µM; in [3] it was 3.66 µM; in assay [4], 3.9 µM; in [5] it was 2.34 µM; in [6], 3.27 µM. Further, the GI50 in assay [7] is 8.23 µM; in assay [8], 12 µM; in [9], 3.59 µM; in [10], 3 µM. The TGI in [1] amounted to 42.9 µM; in [2], 14.1 µM; in assay [3], 13.6 µM; in assay [4], 40 µM; in [5], 5.91 µM; in [6] it was 19.7 µM. The TGI is > 100 µM in assay [7], 67.6 µM in assay [8], 37 µM in assay [9] and 13.1 µM in assay [10].

In the case of `CC1=C2[C@@H](CC1)[C@]1(C)O[C@@](C3CCCCC3)(C[C@H]1OC(=O)CO)[C@H]2OC(=O)/C=C/c1ccccc1`, the GI50 was 0.0208 µM in assay [1]; 0.0331 µM in [2]; 6.1 µM in assay [3]; 8.9 µM in [4]; 6.92 µM in assay [5]; 8.37 µM in assay [6]. The GI50 is 1.02 µM in assay [7], 9.71 µM in [8], 0.318 µM in assay [9] and 0.359 µM in [10]. Moreover, the TGI in [1] amounted to 0.0731 µM; in assay [2], 4.25 µM; in assay [3], 16.9 µM; in assay [4], 26.8 µM; in assay [5], 18.7 µM; in assay [6], 23.7 µM. The TGI in [7] amounted to 17.6 µM; in assay [8], 24.5 µM; in assay [9], 15.1 µM; in assay [10], 14.9 µM.

`CC(=O)c1c(C)[nH]c(-c2nc3ccc(N4CCN(C)CC4)cc3[nH]2)c1-c1ccc(OCC2CCOCC2)cc1`: the GI50 in [1] is 0.345 µM; in assay [2], 0.777 µM; in assay [3], 0.302 µM; in [4], 0.63 µM; in [5], 0.889 µM; in assay [6], 0.803 µM. In addition, the GI50 in assay [7] was 3.52 µM; in [8] it was 0.377 µM; in assay [9] it was 1.31 µM; in [10], 0.207 µM. Further, the TGI in assay [1] was 2.2 µM; in assay [2], 12.4 µM; in assay [3] it was 20.5 µM; in assay [4], 4.64 µM; in assay [5], 14 µM; in assay [6], 32.9 µM. Besides, the TGI in assay [7] came to 20.1 µM; in [8], 11.1 µM; in assay [9], 17.4 µM; in assay [10], 6.81 µM.

Regarding `CC1C[C@@]2(c3ccccc3)C(=O)CCC[C@H]2N1` (some centres undefined), the TGI in assay [1], in [2], in [3], in assay [4], in assay [5] and in [6] was > 100 µM throughout. Also, the TGI in assay [7], in [8], in assay [9] and in assay [10] was > 100 µM throughout.

Turning to `COc1ccccc1N1C(=O)/C(=C/c2ccc(N(CCC#N)CCC#N)cc2C)N=C1c1cc([N+](=O)[O-])ccc1Cl`, the TGI is > 100 µM in assay [1]; > 100 µM in assay [2]; > 100 µM in assay [3]; > 100 µM in [4]; > 100 µM in assay [5]; 71.7 µM in assay [6]. Besides, the TGI in assay [7], in [8], in assay [9] and in assay [10] was > 100 µM in each case.

As for `O=[N+]([O-])c1cccc(C2N3CCCCC3[C@@H]3c4[nH]c5ccccc5c4CCN23)c1` (some centres undefined), the TGI in [1] turned out to be 29.5 µM; in assay [2], 38.7 µM; in assay [3], 19.8 µM; in assay [4], 28 µM; in assay [5] it was 32.2 µM; in [6] it was 32.2 µM. Besides, the TGI came out at 27.4 µM in [7], 52.1 µM in assay [8], 27.6 µM in assay [9] and 25.6 µM in assay [10].

For `CN1CCN(CCCN)CC1`, the TGI in [1], in assay [2], in assay [3], in assay [4], in assay [5] and in [6] was > 100 µM in each case. Further, the TGI in assay [7], in assay [8], in [9] and in assay [10] was > 100 µM in each case.

Regarding `CC[C@H](NC(=O)[C@H](C)NC)C(=O)N1C[C@@H](O)C[C@H]1Cc1c(-c2[nH]c3cc(F)ccc3c2C[C@@H]2C[C@H](O)CN2C(=O)[C@H](CC)NC(=O)[C@H](C)NC)[nH]c2cc(F)ccc12`, the GI50 in assay [1] is > 100 µM; in assay [2], > 100 µM; in assay [3] it was 62 µM; in assay [4] it was > 100 µM; in assay [5], > 100 µM; in [6], 0.0598 µM. The GI50 is > 100 µM in [7], < 0.0104 µM in [8], > 100 µM in assay [9] and > 100 µM in [10]. The TGI in [1], in assay [2], in assay [3], in [4], in assay [5] and in [7] was > 100 µM each time. The TGI in assay [8] was 0.0189 µM; in [9], > 100 µM; in [10], > 100 µM.

As to `CO[C@@H]1/C=C\C=C(/C)C(=O)NC2=CC(=O)C(NCCN(C)C)=C(C[C@@H](C)C[C@@H](OC)[C@@H](O)[C@H](C)/C=C(\C)[C@H]1OC(N)=O)C2=O`, the TGI in assay [1] was 28.3 µM; in [3] it was 4.54 µM and 3.96 µM; in assay [4] it was 6.51 µM and 4.99 µM; in assay [5], 6.26 µM and 2.39 µM; in assay [6], 4.76 µM and 4.52 µM; in [7], 16.5 µM and 16.2 µM. In addition, the TGI is > 37.4 µM and 6.86 µM in assay [8]; 2.78 µM and 3.81 µM in assay [9]; 14 µM and 26.7 µM in assay [10]. Further, the GI50 in assay [2] was < 0.0167 µM and 0.0737 µM; in assay [3], < 0.01 µM; in assay [4], 0.0125 µM; in assay [5] it was 0.068 µM and 0.0369 µM; in assay [7], 1.19 µM and 0.209 µM; in assay [9] it was 0.0135 µM.

As to `C=C1C(=O)O[C@H]2[C@H]1CC/C(CNC(=O)c1cc3cc(OC)ccc3[nH]1)=C\CC[C@@]1(C)O[C@@H]21`, the GI50 in assay [1] was 1.93 µM; in assay [2], 1.24 µM; in assay [3] it was 1.41 µM; in [4], 1.5 µM; in [5], 1.21 µM; in assay [6] it was 2 µM. Further, the GI50 in assay [7] was 1.79 µM; in assay [8] it was 11.2 µM; in assay [9], 1.7 µM; in [10], 1.27 µM. In addition, the TGI in assay [1] came to 8.64 µM; in assay [2], 2.84 µM; in assay [3], 4.51 µM; in assay [4], 3.54 µM; in [5], 2.57 µM; in assay [6], 7.57 µM. For the same compound, the TGI worked out at 4.47 µM in assay [7], 23.5 µM in assay [8], 4.87 µM in [9] and 2.64 µM in assay [10].

With `O=S(=O)(NC1=NCCN1C(=S)SN1CCn2c1nsc2=S)c1ccc(Br)cc1`, the GI50 in [1] is 33.7 µM; in [2] it was 22.2 µM; in assay [3], 42.5 µM; in assay [4] it was 68.8 µM; in [5], 23.8 µM; in [6], 49.2 µM. Also, the GI50 in assay [7] is 39.4 µM; in [8], 37.8 µM; in assay [9], 31.6 µM; in assay [10] it was 61 µM. Also, the TGI was > 100 µM in assay [1]; 73.6 µM in assay [2]; > 100 µM in assay [3]; > 100 µM in [4]; > 100 µM in assay [5]; > 100 µM in [6]. Further, the TGI in [7], in assay [8], in assay [9] and in assay [10] was > 100 µM throughout.

Consider `CC(=O)OCC1OC(N2C(=O)C(=O)c3cc(C)ccc32)C(OC(C)=O)C(OC(C)=O)C1OC(C)=O` (centres undefined), for which the TGI in [1], in assay [2], in assay [3], in assay [4], in assay [5] and in [6] was > 100 µM throughout. For the same compound, the TGI in [7], in assay [8], in [9] and in assay [10] was > 100 µM throughout.

With `COc1ccc(N2C(=O)CC(Cl)C2=O)cc1` (centres undefined), the TGI is > 100 µM in assay [1]; 31.7 µM in assay [2]; 31.7 µM in assay [3]; > 100 µM in assay [4]; 28.7 µM in [5]; 34.3 µM in assay [6]. In addition, the TGI in [7] is > 100 µM; in [8], > 100 µM; in assay [9], 32.7 µM; in assay [10], 33 µM.

As for `CC1=C(C(=O)Nc2ccccc2C)C(c2ccc(Cl)c(Cl)c2)C(C(=O)Nc2ccccc2C)=C(C)N1`, the TGI in [1] is 61.8 µM; in assay [2], > 100 µM; in assay [3] it was 57.7 µM; in [4] it was 35.3 µM; in assay [5] it was 49.8 µM; in assay [6] it was > 100 µM. Besides, the TGI in assay [7] was 47.3 µM; in assay [8] it was 81.4 µM; in [9], 47.2 µM; in assay [10] it was > 100 µM.

As to `COc1cc(OC)cc(C2CC(=O)Nc3c2c(C)nn3-c2nc3ccccc3[nH]2)c1` (centres undefined), the GI50 in assay [1] is 2.11 µM; in [2], 3.94 µM; in assay [3], 2.75 µM; in assay [4], 2.46 µM; in assay [5], 2.3 µM; in assay [6], 4.64 µM. In addition, the GI50 is 3.57 µM in assay [7], 2.41 µM in assay [8], 3.46 µM in [9] and 3.22 µM in [10]. The TGI in [1] is 4.69 µM; in assay [2] it was 42.4 µM; in [3], 7.43 µM; in assay [4], 7.27 µM; in assay [5], 5.02 µM; in assay [6], > 100 µM. The TGI is > 100 µM in assay [7], 5.49 µM in assay [8], > 100 µM in assay [9] and 11.4 µM in assay [10].

For `Cc1ccccc1NC(=O)N/C(N)=N/c1nc(-c2cccc([N+](=O)[O-])c2)cs1`, the GI50 is 2.39 µM in [1]; 2.52 µM in assay [2]; 2.78 µM in [3]; 2.15 µM in [4]; 1.72 µM in [5]; 3.53 µM in assay [6]. Besides, the GI50 in assay [7] was 2.67 µM; in assay [8] it was 2.55 µM; in assay [9], 3.37 µM; in assay [10] it was 1.29 µM. The TGI was 7.69 µM in assay [1]; 8.46 µM in [2]; 64 µM in assay [3]; 19.6 µM in assay [4]; 4.41 µM in [5]; > 100 µM in [6]. Moreover, the TGI in [7] came to 8.88 µM; in assay [8], 17.8 µM; in assay [9] it was 30.5 µM; in [10], 3.83 µM.

With `O=c1c2c(nc3n1CCS3)[nH]c1ccccc12`, the GI50 in assay [1] is 89.5 µM; in assay [2] it was > 100 µM; in assay [3], > 100 µM; in [4] it was > 100 µM; in [5], 95.4 µM; in [6], > 100 µM. Further, the GI50 in assay [7] is > 100 µM; in [8], > 100 µM; in [9] it was > 100 µM; in [10] it was 94.3 µM. Also, the TGI in [1], in [2], in assay [3], in [4], in assay [5] and in assay [6] was > 100 µM in each case. Besides, the TGI in assay [7], in [8], in [9] and in assay [10] was > 100 µM each time.

`Cn1ccnc1CC(C)(O)c1ccccc1` (centres undefined): the TGI in [1], in [2], in [3], in [4], in assay [5] and in assay [6] was > 100 µM throughout. For the same compound, the TGI in assay [7], in assay [8], in [9] and in assay [10] was > 100 µM each time.

(Values after PubChem BioAssay (NCI).)
